Among the data in the RepoRT retention time repository are LC retention time values, retold here.

Structures are written as SMILES.

This series is described as follows: HILIC, Waters Atlantis Premier BEH Z-HILIC, 100 × 2.1 mm, 1.7 µm, 40 °C, 0.15 mL/min, estimated dead time 1.5 min; A: water + 20 mM ammonium carbonate + 5 µM medronic acid; B: 10% water + 90% acetonitrile + 2 mM ammonium carbonate + 0.5 µM medronic acid; gradient (min/%B) 0/95 18/55 18.1/20 21.5/20 22/95 23.5/95 25.5/95. As to conditions: stereoisomer not certain.
For the compound `O=P(O)(O)OCC(O)CO` (configuration not stated) [Glycerol-3-phosphate], the LC retention time was 10.2 min. The same measure for `NC(=O)C1=CN(C2OC(COP(=O)(O)OP(=O)(O)OCC3OC(n4cnc5c(N)ncnc54)C(O)C3O)C(O)C2O)C=CC1` (configuration not stated) [NADH]: 8.54 min.

With `O=C(O)CCCCC1SCC2NC(=O)NC21` (configuration not stated) [Biotin], the LC retention time is 4.5 min.

For `CCC(C)C(N)C(=O)O` (configuration not stated) [Isoleucine], the LC retention time was 6.42 min. The result for `Nc1nc2c(ncn2C2OC(COP(=O)(O)OP(=O)(O)OP(=O)(O)O)C(O)C2O)c(=O)[nH]1` (configuration not stated) [GTP] reads 15.7 min; that for `Nc1ncnc2c1ncn2C1OC(COP(=O)(O)O)C(O)C1O` (configuration not stated) [AMP], 9.36 min; that for `NC(=O)C1=CN(C2OC(COP(=O)(O)OP(=O)(O)OCC3OC(n4cnc5c(N)ncnc54)C(OP(=O)(O)O)C3O)C(O)C2O)C=CC1` (configuration not stated) [NADPH], 13.7 min. The result for `O=C(CO)C(O)C(O)C(O)COP(=O)(O)O` (configuration not stated) [Fructose 6-phosphate] reads 11.3 min. The result for `Cc1cc2nc3c(=O)[nH]c(=O)nc-3n(CC(O)C(O)C(O)COP(=O)(O)OP(=O)(O)OCC3OC(n4cnc5c(N)ncnc54)C(O)C3O)c2cc1C` (configuration not stated) [FAD] reads 7.24 min.

Regarding `O=C(O)CC(C(=O)O)C(O)C(=O)O` (configuration not stated) [Isocitric acid], the LC retention time is 13.5 min.

Take `CC(C)(COP(=O)(O)OP(=O)(O)OCC1OC(n2cnc3c(N)ncnc32)C(O)C1OP(=O)(O)O)C(O)C(=O)NCCC(=O)NCCS` (configuration not stated) [CoenzymeA]: the LC retention time is 11.8 min. The same measure for `C[N+](C)(C)CC(O)CC(=O)[O-]` (configuration not stated) [Carnitine]: 9.85 min.

Take `NC(=O)c1ccc[n+](C2OC(COP(=O)(O)OP(=O)(O)OCC3OC(n4cnc5c(N)ncnc54)C(O)C3O)C(O)C2O)c1` (configuration not stated) [NAD]: the LC retention time was 10.2 min. The result for `O=C(O)CC(O)(CC(=O)O)C(=O)O` [Citric acid] reads 13.8 min. The result for `O=C(O)C(CO)OP(=O)(O)O` (configuration not stated) [Phosphoglyceric acid A] reads 12.4 min; that for `NC(N)=NCCCC(N)C(=O)O` (configuration not stated) [Arginine], 19.3 min.

In the case of `O=P(O)(O)OCC1OC(O)(COP(=O)(O)O)C(O)C1O` (configuration not stated) [Fructose-1,6-bisphosphate], the LC retention time is 15.5 min.

Consider `CC(=O)SCCNC(=O)CCNC(=O)C(O)C(C)(C)COP(=O)(O)OP(=O)(O)OCC1OC(n2cnc3c(N)ncnc32)C(O)C1OP(=O)(O)O` (configuration not stated) [Acetyl-CoA], for which the LC retention time was 10.1 min. Regarding `C=C(OP(=O)(O)O)C(=O)O` [PEP], the LC retention time was 13.3 min. The same measure for `CC(=O)NC1C(OP(=O)(O)OP(=O)(O)OCC2OC(n3ccc(=O)[nH]c3=O)C(O)C2O)OC(CO)C(O)C1O` (configuration not stated) [UDP-GlcNAc]: 9.78 min. The result for `Nc1ncnc2c1ncn2C1OC(COP(=O)(O)OP(=O)(O)OP(=O)(O)O)C(O)C1O` (configuration not stated) [ATP] reads 13.2 min; that for `NC(=O)c1ccc[n+](C2OC(COP(=O)(O)OP(=O)(O)OCC3OC(n4cnc5c(N)ncnc54)C(OP(=O)(O)O)C3O)C(O)C2O)c1` (configuration not stated) [NADP], 13.2 min.

Regarding `NCCCCC(N)C(=O)O` (configuration not stated) [Lysine], the LC retention time is 19.5 min.

`O=C(O)CCC(=O)O` [Succinic Acid]: the LC retention time is 9.51 min. The result for `O=C1CC(C(=O)O)NC(=O)N1` (configuration not stated) [dihydroorotic acid] reads 4.59 min. The result for `CCC(=O)OC(CC(=O)[O-])C[N+](C)(C)C` (configuration not stated) [carnitine-C3] reads 6.52 min. The same measure for `NC(CCC(=O)O)C(=O)O` (configuration not stated) [Glutamic acid]: 9.67 min; for `CC(O)C(=O)O` (configuration not stated) [Lactic Acid]: 3.43 min. For the compound `Nc1ncnc2c1ncn2C1OC(CO)C(O)C1O` (configuration not stated) [Adenosine], the LC retention time is 4.11 min. The result for `NC(=O)CCC(N)C(=O)O` (configuration not stated) [Glutamine] reads 10.3 min.

For `O=C(O)CCC(=O)C(=O)O` [2-Oxoglutaric acid], the LC retention time was 8.94 min. The same measure for `O=C(CO)COP(=O)(O)O` [Triose phosphate]: 10.2 min. As to `O=P(O)(O)OCC1OC(O)C(O)C(O)C1O` (configuration not stated) [Glucose-6-phosphate], the LC retention time was 12.3 min. The result for `O=C(O)CCC(O)C(=O)O` (configuration not stated) [2-hydroxy glutaric acid] reads 9.45 min; that for `Nc1ncnc2c1ncn2C1OC(COP(=O)(O)OP(=O)(O)O)C(O)C1O` (configuration not stated) [ADP], 11.3 min; that for `OCC1OC(O)C(O)C(O)C1O` (configuration not stated) [Hexose], 7.63 min. The same measure for `CC(C)CC(N)C(=O)O` (configuration not stated) [Leucine]: 6.03 min.
